This is an account of results in patent US20210290651A1, “METHODS OF TREATING VIRAL INFECTIONS USING INHIBITORS OF NUCLEOTIDE SYNTHESIS PATHWAYS” (priority 2020, published 2021).

For orientation: EC90 means the concentration at which the effect reaches the 90% level.

The structures appear in SMILES notation. Values joined by “and” are separate entries in the source; they are usually repeats but may differ in a detail not shown here. Identical values can stand only once. Like-named read-outs stand apart in the source and are kept apart here.

For data set [1], the system named is SARS-CoV-2. The experiment in a line: microbe, parasite or virus in culture. The data set is classed as cell-based.
Data set [2] concerns Vero E6 cells.
For data set [3], the system named is OMP decarboxylase. To be noted: for PYR concentration: 1 μM; for OMP concentration / Orotate concentration / UMP concentration: PYR 1 μM.
Data set [4] relates to advanced lung cancer. To be noted: weekly rapid iv injection, previously treated patients with advanced lung cancer; cited from earlier work.
The conditions of data set [5]: daily times 5 schedule; cited from earlier work.
The conditions of data set [6]: patient with papillary carcinoma of the thyroid; cited from earlier work.
Data set [7] in a line: in vitro. The following applies: monkey.
For data set [8], the system named is HRV1A strain 2060. Description: Rhinovirus antiviral assay, inhibition of virus-induced cell killing (XTT) in H1-HeLa cells. The data set is classed as cell-based. The following applies: Enterovirus.
Setting [9] is: remdesivir dose response, brequinar 0.000 μM.
The mark [10] stands for this setting: remdesivir dose response, brequinar 0.078 μM.
Setting [11] is: remdesivir dose response, brequinar 0.156 μM.
The mark [12] stands for this setting: remdesivir dose response, brequinar 0.313 μM.
[13] abbreviates: remdesivir dose response, brequinar 1.250 μM.

Consider `CC(C)C[C@H](NC(=O)OCc1ccccc1)C(=O)N[C@@H](CC1CCNC1=O)C(O)S(=O)(=O)[O-].[Na+]` (stereo partly drawn) [GC-376], for which, in data set [1], the “E(Max)” value was 100 and the EC90 was 5.73 µM. Moreover, the EC50 in data set [1] (read-out: EC50: Concentration inhibiting 50% of the maximum CPE-protection effect of the compound (Emax)) came out at 2040 nM. In data set [1] (read-out: IC50: Concentration inhibiting 50% of the virus-induced CPE compared to the no infection control), the IC50 amounted to 2040 nM. Besides, the CC50 in data set [2] is above 50 µM.
Consider `NC(=O)c1[nH]nc([C@@H]2O[C@H](CO)[C@@H](O)[C@H]2O)c1O` [PYR, 5-[(2S,3R,4S,5R)-3,4-dihydroxy-5-(hydroxymethyl)oxolan-2-yl]-4-hydroxy-1H-pyrazole-3-carboxamide], for which the PYR concentration in data set [3] (1 h) and in data set [3] (4 h) was 0 ng/mL in each case. For the same compound, the OMP concentration in data set [3] (Cells, 1 hr) is recorded as 0 ng/mL; in data set [3] (Cells, 4 hr), 10 ng/mL; in data set [3] (Cells, 24 hr), 11 ng/mL; in data set [3] (Supernatant, 24 hr), 43 ng/mL. In addition, the Orotate concentration in data set [3] (Cells, 1 hr) was 339 ng/mL; in data set [3] (Cells, 4 hr) it was 1170 ng/mL; in data set [3] (Cells, 24 hr) it was 1220 ng/mL; in data set [3] (Supernatant, 24 hr), 10005 ng/mL. For the same compound, the UMP concentration turned out to be 552 ng/mL in data set [3] (Cells, 1 hr); 408 ng/mL in data set [3] (Cells, 4 hr); 326 ng/mL in data set [3] (Cells, 24 hr); 69 ng/mL in data set [3] (Supernatant, 24 hr). The therapeutic value result in data set [4] was “little therapeutic value as a single agent”.
Consider `Cc1c(-c2ccc(-c3ccccc3F)cc2)nc2ccc(F)cc2c1C(=O)O` [Brequinar sodium], for which, in data set [5], the maximum tolerated dose is listed as 300 mg/m^2 and the “recommended phase II dose” value is reported as 250 mg/m^2. Further, in data set [6], the tumor response entry is recorded as “One mixed response”.
Consider `NC(=O)c1ncn([C@@H]2O[C@H](CO)[C@@H](O)[C@H]2O)n1` [ribavirin], for which the IC50 in data set [1] (Severe acute respiratory syndrome coronavirus 2, Vero C1008, read-out: IC50: Concentration inhibiting 50% of the virus-induced CPE compared to the no infection control) is above 50000 nM. For the same compound, the EC90 in data set [1] (Severe acute respiratory syndrome coronavirus 2, Vero C1008; Vero E6, MOI of 0.05) was above 50 µM. Further, the CC50 in data set [7] (CC50) was above 50 µM.
Take `CCC(CC)COC(=O)[C@H](C)N[P@](=O)(OC[C@H]1O[C@@](C#N)(c2ccc3c(N)ncnn23)[C@H](O)[C@@H]1O)Oc1ccccc1` [remdesivir]: the “E(Max)” value in data set [1] came to 100. Besides, the “E(Max) of remdesivir” value was 95.33 and 96.37 and 95.10 in data set [1]; 92.02 in data set [1] (brequinar 0.000 μM); 97.37 in data set [1] (brequinar 0.078 μM); 122.66 in data set [1] (brequinar 0.156 μM); 97.35 in data set [1] (brequinar 0.313 μM); 100.22 in data set [1] (brequinar 1.250 μM). The “Max Data” value in data set [1] is 104.7% and 106.8% and 101.9%; in data set [1] (setting [9]), 97.1%; in data set [1] (setting [10]) it was 94.4%; in data set [1] (setting [11]) it was 102.6%; in data set [1] (setting [12]), 103.8%; in data set [1] (setting [13]), 105.1%. Moreover, the “Min Data” value was 75.9% and 78.9% and 69.5% in data set [1]; −11% in data set [1] (setting [9]); −1.9% in data set [1] (setting [10]); 22.1% in data set [1] (setting [11]); 55.4% in data set [1] (setting [12]); 80.1% in data set [1] (setting [13]). Besides, the “increase in activity of remdesivir” value in data set [1] is reported as above 6.8 fold. In data set [1] (Severe acute respiratory syndrome coronavirus 2, Vero C1008), this compound yielded an EC90 of 1.4 µM. Besides, the EC50 in data set [1] (Severe acute respiratory syndrome coronavirus 2, Vero C1008, brequinar 0.000 μM; read-out: EC50 of remdesivir) was 801 nM; in data set [1] (Severe acute respiratory syndrome coronavirus 2, Vero C1008, brequinar 0.078 μM; read-out: EC50 of remdesivir) it was 277 nM; in data set [1] (Severe acute respiratory syndrome coronavirus 2, Vero C1008, brequinar 0.156 μM; read-out: EC50 of remdesivir), 186 nM; in data set [1] (Severe acute respiratory syndrome coronavirus 2, Vero C1008, brequinar 0.313 μM; extrapolated value; read-out: EC50 of remdesivir), 3 nM; in data set [1] (Severe acute respiratory syndrome coronavirus 2, Vero C1008, brequinar 1.250 μM; read-out: EC50 of remdesivir) it was below 19.5 nM; in data set [1] (Severe acute respiratory syndrome coronavirus 2, Vero C1008, read-out: EC50 of remdesivir), below 19.5 nM. Also, in data set [1] (Severe acute respiratory syndrome coronavirus 2, Vero C1008; read-out: EC50: Concentration inhibiting 50% of the maximum CPE-protection effect of the compound (Emax)), the EC50 turned out to be 820 nM. The IC50 is 823 nM in data set [1] (Severe acute respiratory syndrome coronavirus 2, Vero C1008, brequinar 0.000 μM; read-out: IC50 of remdesivir); 292 nM in data set [1] (Severe acute respiratory syndrome coronavirus 2, Vero C1008, brequinar 0.078 μM; read-out: IC50 of remdesivir); 102 nM in data set [1] (Severe acute respiratory syndrome coronavirus 2, Vero C1008, brequinar 0.156 μM; read-out: IC50 of remdesivir); 3 nM in data set [1] (Severe acute respiratory syndrome coronavirus 2, Vero C1008, brequinar 0.313 μM; extrapolated value; read-out: IC50 of remdesivir); below 19.5 nM in data set [1] (Severe acute respiratory syndrome coronavirus 2, Vero C1008, brequinar 1.250 μM; read-out: IC50 of remdesivir); below 19.5 nM in data set [1] (Severe acute respiratory syndrome coronavirus 2, Vero C1008, read-out: IC50 of remdesivir). Also, the IC50 in data set [1] (Severe acute respiratory syndrome coronavirus 2, Vero C1008, read-out: remdesivir concentration to suppress viral replication to 50%) was 100 nM; in data set [1] (Severe acute respiratory syndrome coronavirus 2, Vero C1008; read-out: IC50: Concentration inhibiting 50% of the virus-induced CPE compared to the no infection control), 820 nM. Besides, the “SI50: Selective Index 50 = CC50/IC50” value in data set [1] (Vero E6) was above 61. Moreover, the CC50 is above 50 µM in data set [7] (CC50, Vero E6); above 50 µM in data set [7] (CC50 of remdesivir); above 25 µM in data set [7] (CC50 of remdesivir, brequinar 0.000 μM); above 50 µM in data set [7] (CC50 of remdesivir, brequinar 0.078 μM); above 50 µM in data set [7] (CC50 of remdesivir, brequinar 0.156 μM); above 50 µM in data set [7] (CC50 of remdesivir, brequinar 0.313 μM). This compound also registered a CC50 in data set [7] (CC50 of remdesivir, brequinar 1.250 μM) above 50 µM. Moreover, the “cytotoxicity of the co-treatment” value in data set [2] (remdesivir co-treatment with brequinar) is “No enhanced cytotoxicity was detected”.
Compound `CCOC(=O)/C=C/[C@H](C[C@@H]1CCNC1=O)NC(=O)[C@@H](CC(=O)[C@@H](NC(=O)c1cc(C)on1)C(C)C)Cc1ccc(F)cc1` [Rupintrivir] displayed an EC50 in data set [8] of 10.7 nM.
